The source of these data is the METLIN SMRT retention time set (Domingo-Almenara et al. 2019).

The structures appear in SMILES notation.

The data set is described as follows: gradient 5% acetonitrile 3 min, to 50% in 2 min, to 85% in 15 min, held 3 min, 100 µL/min. To be noted: column: Zorbax Extend-C18 2.1 x 50 mm; eluents: water / acetonitrile, 0.1% formic acid. Summed up:
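Values are retention times taken from adduct peaks that software picked and an analyst inspected. The pure standards were run as mixtures of ~100 molecules on HPLC linked to a quadrupole time-of-flight mass spectrometer, in positive and negative ionization mode. A Zorbax Extend-C18 column (2.1 × 50 mm, 1.8 μm) was used at 100 μL/min with water and acetonitrile, each including 0.1% formic acid.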
`O=C(Nc1cccc(C(F)(F)F)c1)N1CCN(c2cnn3c(C4CC4)nnc3c2)CC1` yielded an RP-LC retention time of 629 s.

As for `Cc1cc(C)c(S(=O)(=O)N2CCCC2c2nc(-c3ccccc3C)no2)cc1C` (stereo not drawn), the RP-LC retention time was 1300 s. The same measure for `COc1ccc(Cc2nnc3sc(-c4cnccn4)nn23)cc1`: 730 s.

`CCC(CO)NCc1ccc(-c2ccc(F)cc2)o1` (stereo not drawn): the RP-LC retention time came to 637 s.

The compound `CCOC(=O)Cc1csc(NC(=O)CCS(=O)(=O)c2ccccc2)n1` showed an RP-LC retention time of 844 s. In the case of `Cc1sc(NC(=O)CSc2nnc3c4ccccc4n(C)c3n2)nc1-c1ccccc1`, the RP-LC retention time was determined as 1030 s. The same measure for `CCCC(NC(=O)c1ccc(OC)cc1)C(=O)Nc1nc2ccccc2[nH]1` (stereo not drawn): 658 s; for `CCCN(C)c1nccn2c(=O)n(CC(=O)Nc3ccc(F)c(Cl)c3)nc12`: 731 s; for `Fc1ccccc1-c1ccc(CNCc2ccco2)o1`: 659 s. The same measure for `COCc1nn(CC2CC2)c2c1CN(C(=O)c1ccc(C)s1)CC2`: 775 s; for `COc1ccc(CNS(=O)(=O)c2cc(-c3nc(C(C)C)cs3)sc2C)cc1`: 1180 s. The same measure for `CCOC(=O)c1c(CN(C)C)n(C)c2cc(C#N)c(O)cc12`: 598 s. Compound `O=C(NCCc1ccncc1)C1CCCN(c2nnc3ccc(C(F)(F)F)cn23)C1` (stereo not drawn) gave an RP-LC retention time of 537 s. The compound `CCC(C)NC(=O)Cn1cnc2nc(N3CCCC(C(=O)NC)C3)sc2c1=O` (stereo not drawn) returned an RP-LC retention time of 608 s. Under `COCCN1CCC2(CC1)CN(Cc1ccc(Cl)c(F)c1)Cc1ccccc1O2` stands 751 s; under `O=S(=O)(c1cccc(-c2nc(-c3ccccc3)no2)c1)N1CCc2ccccc21`, 1320 s; under `CCn1ncc(NC(=O)c2ccc(F)cc2)c(N2CCOCC2)c1=O`, 772 s. With `CCCC(=O)Nc1ccc2c(c1)Sc1ncccc1C(=O)N2CC`, the RP-LC retention time was 724 s.

With `CCc1nc(-c2ccc3c(c2)CCN3C(=O)Cc2ccc(F)cc2)no1`, the RP-LC retention time was 1030 s.

In the case of `O=C(NCc1csc(-c2ccccc2)n1)C1CCN(S(=O)(=O)c2cccs2)CC1`, the RP-LC retention time came out at 872 s. The compound `N#Cc1cnc2ccccc2c1N1CCC(C(=O)N2CCc3ccccc3C2)CC1` gave an RP-LC retention time of 711 s.

`COC(=O)c1cnc2nc(C)ccc2c1Nc1cc(OC)c(OC)c(OC)c1` displayed an RP-LC retention time of 643 s. `CCN(Cc1ccccc1)C(=O)CN1C(=O)N(c2cc(C)cc(C)c2)C2CS(=O)(=O)CC21` (stereo not drawn) came in with an RP-LC retention time of 893 s.

Turning to `CC1CCC(C(=O)Nc2cccc(-c3nnc4n3CCCC4)c2)CC1` (stereo not drawn), the RP-LC retention time was 756 s. The same measure for `CCN1CCN(C(=O)C2CCCN(S(=O)(=O)c3ccc4c(ccn4CC)c3)C2)CC1` (stereo not drawn): 660 s; for `COc1ccc(Cl)cc1N1CC(c2nc(-c3ccccc3F)no2)CC1=O` (stereo not drawn): 943 s. The compound `O=c1n(Cc2cccc(C(F)(F)F)c2)nc2ccc(S(=O)(=O)N3CCCC3)cn12` came in with an RP-LC retention time of 938 s.

In the case of `O=C(c1ccsc1)N1CCN(c2nc(CN3CCCCC3)cs2)CC1`, the RP-LC retention time was determined as 597 s.

The compound `Cn1c(N2CCC(C(=O)N3CCN(c4ccccn4)CC3)CC2)cc(=O)n(C)c1=O` had an RP-LC retention time of 578 s.

In turn, `COc1ccc(-c2noc(-c3nc(C4CC4)no3)n2)cc1` registered an RP-LC retention time of 1090 s. The same measure for `Cc1sc2ccn(C)c(=O)c2c1C(=O)N1CCCCCC1`: 705 s; for `O=C(Nc1ccc2nncn2c1)c1ccc(Cl)cc1`: 719 s.

For `CCNC(=O)c1cccc(Nc2c(-c3ccc(SC)cc3)nc3cnccn23)c1`, the RP-LC retention time came to 887 s.
